Reference: patent US20180172712A1, “METHODS AND MATERIALS FOR ASSESSING HYDROGEN PEROXIDE ACCUMULATION IN CELLS” (Mayo Foundation for Medical Education and Research, priority 2015, published 2018)
Like-named read-outs stand apart in the source and are kept apart here.

Assays:
[1] = system: OCIMY5-Vector and OCIMY-CRBN cells; assay: MTT assay in OCIMY5-Vector and OCIMY-CRBN cells; conditions: 72 hours
Method: Cell viability was assessed by 3-(4,5-dimethylthiazol-2-yl)-2,5-diphenyltetrazolium bromide (MTT) colorimetric assay. […] The data were normalized to the DMSO-treated group. Each experimental condition was performed in triplicate and repeated at least once. Thalidomide was obtained from Sigma, and pomalidomide was obtained from Selleckchem.
(§1) Human CRBN cDNA was obtained from Thermo Scientific and subcloned into a lentiviral expression vector, pCDH-CMV-MCS-EF1-copGFP (System Bioscience). Lentivirus harboring control vector and CRBN cDNA constructs were prepared and used to infect the multiple myeloma (MM) cell line OCIMY5. Infection efficiency was measured by FACScan analysis of GFP expression 3 days after infection. The cells were sorted for GFP expression 14 days after infection.

[2] = system: Myeloma cell line harboring CRBN or without CRBN; assay: Cell survival of myeloma cell line harboring CRBN or without CRBN treated with cofactors; assay type: cell-based, human; conditions: cofactor alone
Description: (§2) The data were normalized to the DMSO-treated group.

RPMI-8226 myeloma cells = assay: Anti-oxidative capacity by FAD and NAD(P)H autofluorescence flow cytometry; assay type: cell-based, human; conditions: pre-treatment of myeloma cells, then external H2O2
Method: HMCLs cells (1 million cells/1 mL PBS) treated or not treated with 100 μM concentration of H2O2 were immediately analyzed for autofluoresnece of FAD (FITC-A channel) and NAD(P)H (UV Blue-A channel) with multicolor flow cytometry (BD LSRFORTESSA). Flowjo histogram normalization was used to overlay untreated versus treated samples.

Horseradish peroxidase = target: T1, Horseradish peroxidase (Armoracia rusticana, UniProt P00433); assay: HRP/Amplex Red in-vitro assay; assay type: biochemical; conditions: 10 μM drug, 5 μM H2O2, 30 minutes
T1 sequence (P00433 31-338 limits assumed): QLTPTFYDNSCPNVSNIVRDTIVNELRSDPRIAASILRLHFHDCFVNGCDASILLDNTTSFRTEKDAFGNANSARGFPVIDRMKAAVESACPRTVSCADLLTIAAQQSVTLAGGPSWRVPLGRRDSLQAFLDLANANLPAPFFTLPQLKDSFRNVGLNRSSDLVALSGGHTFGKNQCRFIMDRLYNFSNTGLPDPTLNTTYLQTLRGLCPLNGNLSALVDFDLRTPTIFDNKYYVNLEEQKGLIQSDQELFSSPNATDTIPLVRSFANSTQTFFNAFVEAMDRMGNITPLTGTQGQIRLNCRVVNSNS
Method: (§3) After 30 minutes, plates were read for fluorescence at 530 nm excitation and 590 nm emission with plate reader (Biotek Cytation3). For determining intra-cellular peroxidase activity by Amplex Red, cells were washed and mixed with Amplex Red reagent (50 μM) in HBSS buffer and plated 100,000 cells per well into 96 well plate, four wells for each condition. […] The DMSO control included H2O2 (100 μM). […] After specific time periods, the plates were read for fluorescence intensity using plate reader.

[3] = system: intracellular peroxidases in HMCLs; assay: Intra-cellular peroxidase activity by Amplex Red in HMCLs; assay type: cell-based, human; conditions: for intracellular H2O2 decomposition mediated by peroxidases: different myeloma cell lines, thalidomide 20 μM, lenalidomide 20 μM, pomalidomide 10 μM, 40 to 60 minutes
Method: as §3

OPM2 cells = assay: Apoptosis assay (Annexin V/propidium iodide FACS) in OPM2 cells; assay type: cell-based, human; conditions: lenalidomide 10 μM pretreatment two days, bortezomib 2.5 nM 2 days
Method: Treated cells were harvested and stained for flow cytometry with Annexin V-fluorescein isothiocyanate and propidium iodide (BD Pharmingen). Stained cells were analyzed with a BD LSRII flow cytometer, and the data were analyzed with BD fluorescence-activated cell sorting (FACs) DIVA software.

PARP = PARP cleavage immunoblot in OPM2-NT and OPM2-shCRBN cells; assay type: cell-based, human; conditions: OPM2 CRBN-positive cells; bortezomib 2.5 nM 2 days
Description: (§4) Proteins were transferred to polyvinylidene fluoride membranes (Bio-Rad).

[4] = system: myeloma cell line harboring CRBN and myeloma cell line without CRBN; assay: Viability of myeloma cell lines with auranofin and bortezomib; assay type: cell-based, human; conditions: bortezomib in combination with auranofin
IKZF1 and IKZF3 [5] = assay: Western blot of IKZF1 and IKZF3 in MM.1S cells; assay type: cell-based, human; conditions: for IKZF1 and IKZF3 degradation: MM.1S cells, 3 hours (lenalidomide 10 μM, H2O2 100 μM, PX12 20 μM)
Description: as §4

IKZF1 and IKZF3 [6] = assay: Western blot of IKZF1 and IKZF3 in OPM2 cells; assay type: cell-based, human; conditions: PX12 20 μM, within 3 hours
Description: as §4

myeloma cells [7] = assay: MTT assay of auranofin in myeloma cells; assay type: cell-based, human
Description: as §2

myeloma cells [8] = assay: Intracellular H2O2 accumulation in myeloma cells; assay type: cell-based, human
thioredoxin reductase = assay: Thioredoxin reductase inhibition
IKZF1 and IKZF3 [9] = conditions: OPM2-NT vs OPM2-shCRBN; H2O2 25 or 50 μM, 3 hours
Description: as §4

IKZF1 and IKZF3 [10] = assay: Western blot of IKZF1 and IKZF3 in OCIMY-5 cells overexpressing CRBN; assay type: cell-based, human; conditions: lenalidomide 10 μM or H2O2 25 or 50 μM, within 3 hours
Method: as §4, §1

MM.1S cells = assay: MTT assay in MM.1S cells; assay type: cell-based, human; conditions: 3 days
Description: as §2

RPMI-8226 cells = assay: MTT assay in RPMI-8226 cells; assay type: cell-based, human; conditions: RPMI-8226, 3 days
Description: as §2

IgL-λ dimers = assay: IgL dimerization immunoblot under nonreducing conditions in MM.1S cells; assay type: cell-based, human; conditions: 3 hours, lenalidomide 10 μM or H2O2 25 μM
Description: as §4

myeloma cells [11] = assay: MTT assay of dehydroascorbic acid in myeloma cells; assay type: cell-based, human; conditions: high concentrations
Description: as §2

[12] = OCIMY5-Vector (CRBN deficient) cells
[13] = OCIMY-CRBN (CRBN positive) cells

Structure (SMILES): O=C([O-])CC([S-])C(=O)[O-].[Au+].[Na+].[Na+] (centres unmarked) [ATM, sodium aurothiomalate]
- cell proliferation (MTT) [1, 12]: did not inhibit cell proliferation
- cell proliferation (MTT) [1, 13]: did not inhibit cell proliferation

Structure (SMILES): NC(=O)C1=CN([C@@H]2O[C@H](COP(=O)(O)OP(=O)(O)OC[C@H]3O[C@@H](n4cnc5c(N)ncnc54)[C@H](OP(=O)(O)O)[C@@H]3O)[C@@H](O)[C@H]2O)C=CC1 [NADPH]
- cell survival [2]: induced cell death

Structure (SMILES): O=C(O)CCCC[C@@H]1CCSS1 [lipoic acid]
- anti-oxidative capacity (FADH2 and NAD(P)H oxidation) (RPMI-8226 myeloma cells): decreased myeloma cells anti-oxidative capacity

Structure (SMILES): Nc1cccc2c1C(=O)N(C1CCC(=O)NC1=O)C2=O (centres unmarked) [pomalidomide]
- decomposition of H2O2 by horseradish peroxidase (Amplex Red to resorufin) (Horseradish peroxidase): inhibited
- inhibition of intracellular peroxidases compared among IMIDs ([3]; FIG. 1C-E and FIG. 2A): more potentially than thalidomide and lenalidomide
- intracellular H2O2 decomposition mediated by peroxidases [3]: inhibit intracellular H2O2 decomposition

Structure (SMILES): NC(=O)C1=CN([C@@H]2O[C@H](COP(=O)(O)OP(=O)(O)OC[C@H]3O[C@@H](n4cnc5c(N)ncnc54)[C@H](O)[C@@H]3O)[C@@H](O)[C@H]2O)C=CC1 [NADH]
- cell survival [2]: induced cell death

Structure (SMILES): CC(C)C[C@H](NC(=O)[C@H](Cc1ccccc1)NC(=O)c1cnccn1)B(O)O [bortezomib]
- bortezomib-induced apoptosis in cells pretreated with lenalidomide vs not pretreated (OPM2 cells): increased sensitivity
- bortezomib-induced PARP cleavage after lenalidomide pretreatment (PARP): enhanced
- interaction with auranofin (percent viability) [4]: synergy

Structure (SMILES): CCC(C)SSc1ncc[nH]1 (centres unmarked) [PX12, 1-methylpropyl 2-imidazolyl disulfide]
- IKZF1 and IKZF3 degradation (IKZF1 and IKZF3 [5]): induced IKZF1 and IKZF3 degradation
- cell proliferation (MTT) [1, 12]: inhibited cell proliferation
- cell proliferation (MTT) [1, 13]: inhibited cell proliferation
- IKZF1 and IKZF3 degradation (IKZF1 and IKZF3 [6]): induced IKZF1 and IKZF3 degradation

Structure (SMILES): NC(=O)CCCCC1CCSS1 (centres unmarked) [lopoamide]
- anti-oxidative capacity (FADH2 and NAD(P)H oxidation) (RPMI-8226 myeloma cells): decreased myeloma cells anti-oxidative capacity

Structure (SMILES): NC(=O)c1ccc[n+]([C@@H]2O[C@H](COP(=O)([O-])OP(=O)(O)OC[C@H]3O[C@@H](n4cnc5c(N)ncnc54)[C@H](OP(=O)(O)O)[C@@H]3O)[C@@H](O)[C@H]2O)c1 [NADP]
- cell survival [2]: induced cell death

Structure (SMILES): CC(=O)OC[C@H]1O[C@@H]([S-])[C@H](OC(C)=O)[C@@H](OC(C)=O)[C@@H]1OC(C)=O.CCP(CC)CC.[Au+] [auranofin]
- CRBN dependence of inhibition of cancer cell proliferation (myeloma cells [7]): irrespective of CRBN level
- potency in inhibiting cancer cell proliferation, compared with lenalidomide (myeloma cells [7]): more potent than lenalidomide
- cancer cell viability (MTT) (myeloma cells [7]; myeloma cells): reducing cancer cell viability
- intracellular H2O2 accumulation (myeloma cells [8]): effective at accumulating intracellular H2O2
- potency in inhibiting thioredoxin reductase, compared with lenalidomide (thioredoxin reductase): more potent than lenalidomide

Structure (SMILES): O=C1CCC(N2C(=O)c3ccccc3C2=O)C(=O)N1 (centres unmarked) [thalidomide]
- decomposition of H2O2 by horseradish peroxidase (Amplex Red to resorufin) (Horseradish peroxidase): inhibited
- intracellular H2O2 decomposition mediated by peroxidases [3]: inhibit intracellular H2O2 decomposition

Structure (SMILES): OO [H2O2, hydrogen peroxide]
- IKZF1 and IKZF3 degradation (IKZF1 and IKZF3 [5]): degraded IKZF1 and IKZF3 most effectively
- IKZF1 degradation (IKZF1 and IKZF3 [5]; MM.1S, 3 hours of treatment): prominent
- time of peak IKZF1 dimerization after treatment (IKZF1 and IKZF3 [5]; MM.1S, exogenous H2O2 50 μM): 60 min
- IKZF1 dimerization (IKZF1 and IKZF3 [5]; MM.1S, nonreducing conditions, lenalidomide 10 μM or exogenous H2O2 50 μM): induced IKZF1 dimerization
- IKZF1 and IKZF3 degradation (IKZF1 and IKZF3 [9]): in a CRBN-dependent fashion
- IKZF1 and IKZF3 degradation (IKZF1 and IKZF3 [10]): enhanced IKZF1 and IKZF3 degradation
- sensitivity of cell line (MTT) (MM.1S cells): hypersensitive
- sensitivity of cell line (MTT) (RPMI-8226 cells): resistant
- formation of IgL-λ dimers (IgL-λ dimers): increased formation of IgL-λ dimers

Structure (SMILES): O=C1O[C@H]([C@@H](O)CO)C(=O)C1=O [DHA, Dehydroascorbic acid]
- myeloma cell proliferation (MTT) (myeloma cells [11]): inhibited myeloma cell proliferation

Structure (SMILES): NC(=O)c1ccc[n+]([C@@H]2O[C@H](COP(=O)([O-])OP(=O)(O)OC[C@H]3O[C@@H](n4cnc5c(N)ncnc54)[C@H](O)[C@@H]3O)[C@@H](O)[C@H]2O)c1 [NAD]
- cell survival [2]: induced cell death
